Experimental data from patent publication US11369688B2, “Hybrid telodendrimers” (THE REGENTS OF THE UNIVERSITY OF CALIFORNIA, priority 2016, dated 2022).

Experiment: Visual observation of drug-loaded crosslinked PEG5K-(Ahx-(NAc-Cys))4/CA4 nanocarriers
Format: physicochemical
Conditions: 1 mg drug/10 mg PEG5K-(Ahx-(NAc-Cys))4/CA4, crosslinked; effective concentration 2 mg drug/20 mg polymer per ml PBS

SMILES | Observation
CO[C@H]1C(=O)[C@]2(C)[C@@H](OC)C[C@H]3OC[C@@]3(OC(C)=O)[C@H]2[C@H](OC(=O)c2ccccc2)[C@]2(O)C[C@H](OC(=O)[C@H](O)[C@@H](NC(=O)OC(C)(C)C)c3ccccc3)C(C)=C1C2(C)C [Cabazitaxel, cabazitaxel] | Clear solution
CC[C@]1(O)C[C@@H]2CN(CCc3c([nH]c4ccccc34)[C@@](C(=O)OC)(c3cc4c(cc3OC)N(C)[C@H]3[C@@](O)(C(=O)OC)[C@H](OC(C)=O)[C@]5(CC)C=CCN6CC[C@]43[C@@H]65)C2)C1 [Vinblastine] | Clear
CC(=O)O[C@@]12CO[C@@H]1C[C@H](O)[C@@]1(C)C(=O)[C@H](O)C3=C(C)[C@@H](OC(=O)[C@H](O)[C@@H](NC(=O)OC(C)(C)C)c4ccccc4)C[C@@](O)([C@@H](OC(=O)c4ccccc4)[C@H]21)C3(C)C [Docetaxel, docetaxel] | Clear solution

Next, values leading:

Observation | SMILES
Clear solution | COc1cccc2c1C(=O)c1c(O)c3c(c(O)c1C2=O)C[C@@](O)(C(=O)CO)C[C@@H]3O[C@H]1C[C@H](N)[C@H](O)[C@H](C)O1 [Doxorubicin]
Huge precipitate | CCc1c2c(nc3ccc(O)cc13)-c1cc3c(c(=O)n1C2)COC(=O)[C@]3(O)CC [SN-38]
